Literature values as cited in patent publication US20070264672A1, “DEVELOPMENT OF A NOVEL ASSAY FOR MGMT (METHYL GUANINE METHYL TRANSFERASE)” (priority 2006, published 2007).

How the values were obtained:
[1] = molecular target: T1, MGMT (Homo sapiens, UniProt P16455); conditions: human carcinoma HT-29 cell line, after exposure to the agent
T1 construct: endogenous in cells; host or cells: HT-29 (human carcinoma cell line)
T1 sequence (P16455 1-207): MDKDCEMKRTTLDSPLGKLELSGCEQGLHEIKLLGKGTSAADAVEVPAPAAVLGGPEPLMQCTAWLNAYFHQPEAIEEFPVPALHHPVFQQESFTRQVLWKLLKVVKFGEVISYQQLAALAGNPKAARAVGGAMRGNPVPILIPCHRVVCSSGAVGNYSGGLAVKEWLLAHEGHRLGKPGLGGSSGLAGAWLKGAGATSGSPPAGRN

[2] = test system: glioma cell lines
[3] = test system: human carcinoma HT-29 cell line; conditions: combined with BCNU

| SMILES | duration of inhibition of MGMT activity [1] | effect on chemotherapy-induced cytotoxicity after depletion of MGMT [2] | potentiation of BCNU-induced cytotoxicity over that observed with BCNU alone [3] |
| --- | --- | --- | --- |
| CN(N=O)C(=O)N[C@H]1C(O)O[C@H](CO)[C@@H](O)[C@@H]1O (mixture of isomers) [streptozotocin] | 48 h |  |  |
| Nc1nc(OCc2ccccc2)c2nc[nH]c2n1 [O^6—BG, O^6 benzylguanine] | 48 h | enhanced | three logs |
